Key:
[1] = test system: foxtail, green; test: Test D postemergence; assay type: in vivo, Setaria viridis; conditions: scale 0 to 100; for Plant response rating, Foxtail, Green: 16 g ai/ha
How it was run: (§1)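 Pre: sown in silt loam, sprayed at once. Post: grown in peat-moss/vermiculite mix, sprayed at 1–4 leaves (2–18 cm). Formulation: non-phytotoxic solvent + surfactant. Read-out: visual 0–100 vs controls, 14–21 d.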

[2] = test system: foxtail, green; test: Test C preemergence; assay type: in vivo, Setaria viridis; conditions: for Plant response rating (scale of 0 to 100), Foxtail, Green: Preemergence, 250 g ai/ha; for Foxtail, Green plant response rating / Plant response rating, Foxtail, Green: preemergence; for Plant response rating, Foxtail, Green: 62 g ai/ha, scale 0 to 100, 0 = no effect, 100 = complete control
Text: (§2) Seeds of plant species selected from blackgrass (Alopecurus myosuroides), ryegrass, Italian (Italian ryegrass, Lolium multiflorum), wheat (winter wheat, Triticum aestivum), galium (catchweed bedstraw, Galium aparine), corn (Zea mays), crabgrass, large (large crabgrass, Digitaria sanguinalis), foxtail, giant (giant foxtail, Setaria faberii), johnsongrass (Sorghum halepense), lambsquarters (Chenopodium album), morningglory (Ipomoea coccinea), nutsedge, yellow (yellow nutsedge, Cyperus esculentus), pigweed (redroot pigweed, Amaranthus retroflexus), ragweed (common ragweed, Ambrosia elation), soybean (Glycine max), barnyardgrass (Echinochloa crus-galli), oilseed rape (Brassica napus), waterhemp (common waterhemp, Amaranthus rudis), oat, wild (wild oat, Avena fatua), kochia (Kochia scoparia), Surinam grass (Brachiaria decumbens), foxtail, green (green foxtail, Setaria viridis), goosegrass (Eleusine indica), bromegrass, downy (downy bromegrass, Bromus tectorum), nightshade (eastern black nightshade, Solanum ptycanthum), cocklebur (common cocklebur, Xanthium strumarium), cupgrass, woolly (woolly cupgrass, Eriochloa villosa), bermudagrass (Cynodon dactylon), sunflower, (common oilseed sunflower, Helianthus annuus), Russian thistle (Salsola kali), and velvetleaf (Abutilon theophrasti) were planted into a blend of loam soil and sand and treated preemergence with test chemicals formulated in a non-phytotoxic solvent mixture which included a surfactant.
(§3) At the same time, plants selected from these crop and weed species and also chickweed (common chickweed, Stellaria media), canarygrass (littleseed canarygrass, Phalaris minor), and deadnettle (henbit deadnettle, Lamium amplexicaule), were planted in pots containing Redi-Earth® planting medium (Scotts Company, 14111 Scottslawn Road, Marysville, Ohio 43041) comprising spaghnum peat moss, vermiculite, wetting agent and starter nutrients and treated with postemergence applications of test chemicals formulated in the same manner. Plants ranged in height from 2 to 18 cm (1- to 4-leaf stage) for postemergence treatments. Treated plants and controls were maintained in a greenhouse for 13 to 15 days, after which time all species were compared to controls and visually evaluated. Plant response ratings, summarized in Table C, are based on a scale of 0 to 100 where 0 is no effect and 100 is complete control. A dash (-) response means no test result.

[3] = test system: cupgrass, woolly; test: Test C preemergence; assay type: in vivo, Eriochloa villosa; conditions: for Plant response rating (scale of 0 to 100), Cupgrass, Woolly: Preemergence, 250 g ai/ha
Text: as §2, §3

[4] = test system: deadnettle; test: Test D postemergence; assay type: in vivo, Lamium amplexicaule; conditions: scale 0 to 100; for Plant response rating, Deadnettle: 16 g ai/ha
How it was run: as §1

[5] = test system: foxtail, green; test: Test D preemergence; assay type: in vivo, Setaria viridis; conditions: for Plant response rating (scale 0 to 100), Foxtail, Green: 16 g ai/ha, taken as preemergence; for Plant response rating, Foxtail, Green: Preemergence, scale 0 to 100
How it was run: as §1

[6] = test system: mustard, wild; test: Test D preemergence; assay type: in vivo, Sinapis arvensis; conditions: for Plant response rating, Mustard, Wild: Preemergence, scale 0 to 100
How it was run: as §1

[7] = test system: oat, wild; test: Test D postemergence; assay type: in vivo, Avena fatua; conditions: scale 0 to 100; for Plant response rating, Oat, Wild: 16 g ai/ha
How it was run: as §1

[8] = test system: field violet; test: Test D postemergence; assay type: in vivo, Viola arvensis; conditions: scale 0 to 100; for Plant response rating, Field Violet: 16 g ai/ha
How it was run: as §1

[9] = test system: wheat, winter; test: Test D postemergence; assay type: in vivo, Triticum aestivum; conditions: scale 0 to 100; for Plant response rating, Wheat, Winter: 16 g ai/ha
How it was run: as §1

[10] = test system: wheat, spring; test: Test D postemergence; assay type: in vivo, Triticum aestivum; conditions: scale 0 to 100; for Plant response rating, Wheat, Spring: 16 g ai/ha
How it was run: as §1

[11] = test system: windgrass; test: Test D postemergence; assay type: in vivo, Apera spica-venti; conditions: scale 0 to 100; for Plant response rating, Windgrass: 16 g ai/ha
How it was run: as §1

[12] = test system: oat, wild; test: Test D preemergence; assay type: in vivo, Avena fatua; conditions: for Plant response rating (scale 0 to 100), Oat, Wild: 16 g ai/ha, taken as preemergence; for Plant response rating, Oat, Wild: Preemergence, scale 0 to 100
How it was run: as §1

[13] = test system: buckwheat, wild; test: Test D postemergence; assay type: in vivo, Polygonum convolvulus; conditions: scale 0 to 100; for Plant response rating, Buckwheat, Wild: 16 g ai/ha
How it was run: as §1

[14] = 31 g ai/ha, scale 0 to 100 (0 no effect, 100 complete control), 13 to 15 days
[15] = 125 g ai/ha, scale 0 to 100, 0 is no effect, 100 is complete control
[16] = preemergence, 31 g ai/ha, scale 0 to 100 (0 no effect, 100 complete control), 13 to 15 days
[17] = preemergence, 125 g ai/ha, scale 0 to 100, 0 is no effect, 100 is complete control

Compound: Cc1cc(C(=O)NCC(F)(F)F)nn1Cc1ccnc(C(F)(F)F)c1 [Compound 74]
- Plant response rating, Foxtail, Green ([1]; Postemergence): 0
- Foxtail, Green plant response rating ([1]; Postemergence, 31 g ai/ha): 10
- Foxtail, Green plant response rating ([1]; Postemergence, 125 g ai/ha): 40
- Foxtail, Green plant response rating ([1]; postemergence, 62 g ai/ha): 15
- Plant response rating (scale of 0 to 100), Foxtail, Green [2]: 95
- Foxtail, Green plant response rating [2, 14]: 85
- Plant response rating, Foxtail, Green ([2]; 13 to 15 days): 95
- Foxtail, Green plant response rating [2, 15]: 95
- Plant response rating (scale of 0 to 100), Cupgrass, Woolly [3]: 98
- Cupgrass, Woolly plant response rating [3, 16]: 65
- Cupgrass, Woolly plant response rating [3, 17]: 98
- Plant response rating, Deadnettle ([4]; Postemergence): 10
- Deadnettle plant response rating ([4]; Postemergence, 31 g ai/ha): 15
- Deadnettle plant response rating ([4]; Postemergence, 125 g ai/ha): 30
- Deadnettle plant response rating ([4]; postemergence, 62 g ai/ha): 20
- Plant response rating (scale 0 to 100), Foxtail, Green [5]: 0
- Plant response rating, Foxtail, Green ([5]; 31 g ai/ha): 5
- Plant response rating, Foxtail, Green ([5]; 62 g ai/ha): 10
- Plant response rating, Foxtail, Green ([5]; 125 g ai/ha): 30
- Plant response rating (scale 0 to 100), Mustard, Wild ([6]; 16 g ai/ha, taken as preemergence): 15
- Plant response rating, Mustard, Wild ([6]; 31 g ai/ha): 25
- Plant response rating, Mustard, Wild ([6]; 62 g ai/ha): 25
- Plant response rating, Mustard, Wild ([6]; 125 g ai/ha): 80
- Plant response rating, Oat, Wild ([7]; Postemergence): 0
- Oat, Wild plant response rating ([7]; Postemergence, 31 g ai/ha): 5
- Oat, Wild plant response rating ([7]; Postemergence, 125 g ai/ha): 5
- Oat, Wild plant response rating ([7]; postemergence, 62 g ai/ha): 5
- Plant response rating, Field Violet ([8]; Postemergence): 25
- Field Violet plant response rating ([8]; Postemergence, 31 g ai/ha): 30
- Field Violet plant response rating ([8]; Postemergence, 125 g ai/ha): 50
- Field Violet plant response rating ([8]; postemergence, 62 g ai/ha): 60
- Plant response rating, Wheat, Winter ([9]; Postemergence): 0
- Wheat, Winter plant response rating ([9]; Postemergence, 31 g ai/ha): 0
- Wheat, Winter plant response rating ([9]; Postemergence, 125 g ai/ha): 0
- Wheat, Winter plant response rating ([9]; postemergence, 62 g ai/ha): 0
- Plant response rating, Wheat, Spring ([10]; Postemergence): 0
- Wheat, Spring plant response rating ([10]; Postemergence, 31 g ai/ha): 0
- Wheat, Spring plant response rating ([10]; Postemergence, 125 g ai/ha): 5
- Wheat, Spring plant response rating ([10]; postemergence, 62 g ai/ha): 0
- Plant response rating, Windgrass ([11]; Postemergence): 0
- Windgrass plant response rating ([11]; Postemergence, 31 g ai/ha): 0
- Windgrass plant response rating ([11]; Postemergence, 125 g ai/ha): 5
- Windgrass plant response rating ([11]; postemergence, 62 g ai/ha): 0
- Plant response rating (scale 0 to 100), Oat, Wild [12]: 20
- Plant response rating, Oat, Wild ([12]; 31 g ai/ha): 10
- Plant response rating, Oat, Wild ([12]; 62 g ai/ha): 10
- Plant response rating, Oat, Wild ([12]; 125 g ai/ha): 30
- Plant response rating, Buckwheat, Wild ([13]; Postemergence): 60
- Buckwheat, Wild plant response rating ([13]; Postemergence, 31 g ai/ha): 60
- Buckwheat, Wild plant response rating ([13]; Postemergence, 125 g ai/ha): 65
- Buckwheat, Wild plant response rating ([13]; postemergence, 62 g ai/ha): 45

Compound: CCc1cc(C(=O)NOC(C)C)nn1Cc1cccc(OC(F)(F)F)c1 [Compound 70]
- Plant response rating, Foxtail, Green ([1]; Postemergence): 0
- Foxtail, Green plant response rating ([1]; Postemergence, 31 g ai/ha): 15
- Foxtail, Green plant response rating ([1]; Postemergence, 125 g ai/ha): 30
- Foxtail, Green plant response rating ([1]; Postemergence, 250 g ai/ha): 60
- Foxtail, Green plant response rating ([1]; postemergence, 62 g ai/ha): 0
- Plant response rating (scale of 0 to 100), Foxtail, Green [2]: 98
- Foxtail, Green plant response rating [2, 14]: 15
- Plant response rating, Foxtail, Green ([2]; 13 to 15 days): 95
- Foxtail, Green plant response rating [2, 15]: 95
- Plant response rating (scale of 0 to 100), Cupgrass, Woolly [3]: 90
- Cupgrass, Woolly plant response rating [3, 16]: 40
- Plant response rating, Cupgrass, Woolly ([3]; preemergence, 62 g ai/ha, 13 to 15 days, scale 0 to 100, 0 = no effect, 100 = complete control): 65
- Cupgrass, Woolly plant response rating [3, 17]: 85
- Plant response rating, Deadnettle ([4]; Postemergence): 0
- Deadnettle plant response rating ([4]; Postemergence, 31 g ai/ha): 10
- Deadnettle plant response rating ([4]; Postemergence, 125 g ai/ha): 30
- Deadnettle plant response rating ([4]; Postemergence, 250 g ai/ha): 60
- Deadnettle plant response rating ([4]; postemergence, 62 g ai/ha): 10
- Plant response rating (scale 0 to 100), Foxtail, Green [5]: 0
- Plant response rating, Foxtail, Green ([5]; 31 g ai/ha): 0
- Plant response rating, Foxtail, Green ([5]; 62 g ai/ha): 0
- Plant response rating, Foxtail, Green ([5]; 125 g ai/ha): 20
- Plant response rating, Foxtail, Green ([5]; 250 g ai/ha): 100
- Plant response rating, Mustard, Wild ([6]; 31 g ai/ha): 0
- Plant response rating, Mustard, Wild ([6]; 62 g ai/ha): 100
- Plant response rating, Mustard, Wild ([6]; 125 g ai/ha): 100
- Plant response rating, Mustard, Wild ([6]; 250 g ai/ha): 100
- Plant response rating, Oat, Wild ([7]; Postemergence): 0
- Oat, Wild plant response rating ([7]; Postemergence, 31 g ai/ha): 0
- Oat, Wild plant response rating ([7]; Postemergence, 125 g ai/ha): 0
- Oat, Wild plant response rating ([7]; Postemergence, 250 g ai/ha): 10
- Oat, Wild plant response rating ([7]; postemergence, 62 g ai/ha): 0
- Plant response rating, Field Violet ([8]; Postemergence): 20
- Field Violet plant response rating ([8]; Postemergence, 31 g ai/ha): 40
- Field Violet plant response rating ([8]; Postemergence, 125 g ai/ha): 75
- Field Violet plant response rating ([8]; Postemergence, 250 g ai/ha): 75
- Field Violet plant response rating ([8]; postemergence, 62 g ai/ha): 40
- Plant response rating, Wheat, Winter ([9]; Postemergence): 0
- Wheat, Winter plant response rating ([9]; Postemergence, 31 g ai/ha): 0
- Wheat, Winter plant response rating ([9]; Postemergence, 125 g ai/ha): 5
- Wheat, Winter plant response rating ([9]; Postemergence, 250 g ai/ha): 10
- Wheat, Winter plant response rating ([9]; postemergence, 62 g ai/ha): 5
- Plant response rating, Wheat, Spring ([10]; Postemergence): 0
- Wheat, Spring plant response rating ([10]; Postemergence, 31 g ai/ha): 5
- Wheat, Spring plant response rating ([10]; Postemergence, 125 g ai/ha): 5
- Wheat, Spring plant response rating ([10]; Postemergence, 250 g ai/ha): 10
- Wheat, Spring plant response rating ([10]; postemergence, 62 g ai/ha): 5
- Plant response rating, Windgrass ([11]; Postemergence): 0
- Windgrass plant response rating ([11]; Postemergence, 31 g ai/ha): 0
- Windgrass plant response rating ([11]; Postemergence, 125 g ai/ha): 0
- Windgrass plant response rating ([11]; Postemergence, 250 g ai/ha): 0
- Windgrass plant response rating ([11]; postemergence, 62 g ai/ha): 0
- Plant response rating (scale 0 to 100), Oat, Wild [12]: 0
- Plant response rating, Oat, Wild ([12]; 31 g ai/ha): 0
- Plant response rating, Oat, Wild ([12]; 62 g ai/ha): 0
- Plant response rating, Oat, Wild ([12]; 125 g ai/ha): 5
- Plant response rating, Oat, Wild ([12]; 250 g ai/ha): 30
- Plant response rating, Buckwheat, Wild ([13]; Postemergence): 10
- Buckwheat, Wild plant response rating ([13]; Postemergence, 31 g ai/ha): 20
- Buckwheat, Wild plant response rating ([13]; Postemergence, 125 g ai/ha): 20
- Buckwheat, Wild plant response rating ([13]; Postemergence, 250 g ai/ha): 35
- Buckwheat, Wild plant response rating ([13]; postemergence, 62 g ai/ha): 20
